Test systems include U251 CNS; COLO 205 colon; CCRF-CEM leukemia; SW-620 colon; NCI-H23 lung; SK-OV-3 ovarian; K-562 leukemia; SK-MEL-5 melanoma.
Assay in all cases: growth of human tumour cells (NCI), 48 h

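Dose response: 5 concentrations. Exposure: 48 h. Format: 96-well plates. Endpoint: linear interpolation; highest concentration if not reached. GI50: concentration for 50% inhibition of growth. The concentration for full growth arrest is given as TGI.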

Take `O=C1/C(=C\c2coc3ccccc3c2=O)c2ccccc2N1c1c(Cl)cccc1Cl`: the GI50 was 1.45 µM in the test with U251 CNS; 3.82 µM in the test with COLO 205 colon; 2.08 µM in the test with CCRF-CEM leukemia; 5.28 µM with SW-620 colon; 4.45 µM in the test with NCI-H23 lung; 35.6 µM with SK-OV-3 ovarian. For the same compound, the GI50 in the test on K-562 leukemia is 2.08 µM; with SK-MEL-5 melanoma it was 2.44 µM. Moreover, the TGI is 35.6 µM in the test on U251 CNS; 36 µM in the test on COLO 205 colon; over 100 µM in the test with CCRF-CEM leukemia; over 100 µM with SW-620 colon; over 100 µM in the test with NCI-H23 lung; over 100 µM in the test with SK-OV-3 ovarian. In addition, the TGI in the test on K-562 leukemia and in the test with SK-MEL-5 melanoma was over 100 µM throughout.
For the compound `COc1ccc(C2=C(c3cc(OC)c(OC)c(OC)c3)C(=O)CC2)cc1`, the GI50 with U251 CNS was 0.324 µM; in the test on COLO 205 colon, 0.218 µM; with CCRF-CEM leukemia, 0.21 µM; with SW-620 colon it was 0.082 µM; with NCI-H23 lung it was 0.313 µM; in the test on SK-OV-3 ovarian, 0.179 µM. The GI50 in the test with K-562 leukemia was 0.0449 µM; in the test with SK-MEL-5 melanoma it was 0.123 µM. Further, the TGI in the test with U251 CNS is over 100 µM; in the test with COLO 205 colon, 1.17 µM; in the test on SW-620 colon, over 100 µM; with NCI-H23 lung it was over 100 µM; in the test on K-562 leukemia, over 100 µM; in the test on SK-MEL-5 melanoma it was 6.24 µM.
Turning to `Cc1ccccc1N=Nc1c(O)[nH]c2ccccc12`, the TGI with U251 CNS, in the test with COLO 205 colon, in the test with CCRF-CEM leukemia, in the test with SW-620 colon, with NCI-H23 lung and with SK-OV-3 ovarian was over 100 µM throughout. For the same compound, the TGI with K-562 leukemia and in the test with SK-MEL-5 melanoma was over 100 µM in each case.
For the compound `CCCN(CCC)CCCNC(=O)c1cc2c(-c3ccc(OC)c(OC)c3)nn(C)c2s1`, the GI50 in the test on U251 CNS is 25.3 µM; in the test with COLO 205 colon, 13.6 µM; with CCRF-CEM leukemia it was 20.3 µM; in the test on SW-620 colon it was 24.5 µM; in the test on NCI-H23 lung, 58 µM; in the test with SK-OV-3 ovarian it was 44.3 µM. Moreover, the figures for the GI50 in the test on K-562 leukemia and in the test on SK-MEL-5 melanoma were 21.5 µM and 15.4 µM, respectively. The TGI in the test with U251 CNS is over 100 µM; with COLO 205 colon, 30.3 µM; in the test with CCRF-CEM leukemia, 65.6 µM; in the test with SW-620 colon, 82.6 µM; with NCI-H23 lung, over 100 µM; with SK-OV-3 ovarian, over 100 µM. The TGI with K-562 leukemia is 66.2 µM; with SK-MEL-5 melanoma, 29 µM.
Take `C[C@H]1CC[C@@H]2[C@@H](C)[C@H]3[C@H](C[C@H]4[C@@H]5CC=C6C[C@@H](O)CC[C@]6(C)[C@H]5C[C@H](O)[C@]34C)N2C1`: the TGI with U251 CNS, with COLO 205 colon, with SW-620 colon, with NCI-H23 lung, in the test on SK-OV-3 ovarian and in the test on K-562 leukemia was over 100 µM throughout. For the same compound, in the test with SK-MEL-5 melanoma, the TGI was over 100 µM.
On to `N#Cc1cccc(NC(=O)c2oc3ccccc3c2-c2cnn(-c3ccccc3)c2)c1`, for which the GI50 was 256 µM with U251 CNS; over 500 µM in the test on COLO 205 colon; over 500 µM with CCRF-CEM leukemia; over 500 µM with SW-620 colon; over 500 µM in the test with NCI-H23 lung; over 500 µM in the test on SK-OV-3 ovarian. Further, the GI50 in the test with K-562 leukemia and with SK-MEL-5 melanoma was over 500 µM in each case. Further, the TGI with U251 CNS, with COLO 205 colon, in the test with CCRF-CEM leukemia, in the test with SW-620 colon, in the test on NCI-H23 lung and with SK-OV-3 ovarian was over 500 µM each time. Besides, the TGI with K-562 leukemia and with SK-MEL-5 melanoma was over 500 µM each time.
Turning to `C#COc1cccc(Nc2ncnc3ncc(NC(=O)CCl)cc23)c1`, the GI50 in the test with U251 CNS was over 13.3 µM; with COLO 205 colon, over 26.8 µM; in the test on NCI-H23 lung, over 62.5 µM; in the test with SK-OV-3 ovarian, over 62.5 µM; in the test with SK-MEL-5 melanoma it was over 51.2 µM. Further, the TGI in the test on U251 CNS is over 34.5 µM; with COLO 205 colon it was over 62.5 µM; with CCRF-CEM leukemia, over 62.5 µM; in the test on SW-620 colon, over 62.5 µM; in the test on NCI-H23 lung it was over 62.5 µM; in the test on SK-OV-3 ovarian, over 62.5 µM. Moreover, the TGI in the test with K-562 leukemia and with SK-MEL-5 melanoma was over 62.5 µM in each case.
Consider `O=C1C(Cl)=C(Nc2cccc(O)c2)C(=O)N1c1ccc(Cl)c(Cl)c1`, for which the GI50 in the test with U251 CNS was 15.5 µM; with COLO 205 colon, 32 µM; in the test on CCRF-CEM leukemia it was 25.2 µM; in the test on NCI-H23 lung it was 15.4 µM; in the test with SK-OV-3 ovarian, 25.5 µM; with K-562 leukemia, 25.5 µM. For the same compound, in the test with SK-MEL-5 melanoma, the GI50 is 20 µM. Also, the TGI with U251 CNS was 30.9 µM; with COLO 205 colon, 89.9 µM; with CCRF-CEM leukemia, 74.6 µM; in the test with NCI-H23 lung, 31.3 µM; in the test on SK-OV-3 ovarian it was 73.3 µM; in the test with K-562 leukemia it was over 100 µM. This compound gave a TGI with SK-MEL-5 melanoma of 64.7 µM.
`CC1OC(OC2CC(O)C3(CO)C4C(O)CC5(C)C(C6=CC(=O)OC6)CCC5(O)C4CCC3(O)C2)C(O)C(O)C1O` (stereo unspecified): the GI50 was 0.0219 µM in the test with U251 CNS; 0.0239 µM in the test with COLO 205 colon; 0.02 µM with SW-620 colon; under 0.0108 µM in the test on NCI-H23 lung; 0.0157 µM in the test on SK-OV-3 ovarian; under 0.0198 µM in the test on K-562 leukemia. For the same compound, the GI50 with SK-MEL-5 melanoma is under 0.0151 µM. The TGI in the test with U251 CNS is 0.0683 µM; with COLO 205 colon, 0.116 µM; in the test with SW-620 colon, 0.702 µM; in the test on NCI-H23 lung it was under 0.0142 µM; with SK-OV-3 ovarian, 0.0552 µM; in the test on SK-MEL-5 melanoma, 0.0267 µM.
On to `COC(=O)[C@H](CC(C)C)NC(=O)NC(=O)NC(=O)CI`, for which the GI50 is 15.8 µM with U251 CNS; 1.79 µM in the test on COLO 205 colon; 1.83 µM in the test on SW-620 colon; 14.9 µM with NCI-H23 lung; 17.6 µM in the test on SK-OV-3 ovarian; 1.91 µM in the test with K-562 leukemia. The GI50 with SK-MEL-5 melanoma was 16.4 µM. The TGI in the test with U251 CNS is 29.3 µM; with COLO 205 colon, 3.47 µM; with SW-620 colon it was 3.53 µM; in the test with NCI-H23 lung, 32.2 µM; with SK-OV-3 ovarian it was 31.8 µM; in the test with K-562 leukemia it was 4.6 µM. This compound also had a TGI with SK-MEL-5 melanoma of 30.3 µM.
For the compound `CC1=C([Se]CC(OC(=O)[C@@H](CO)NC(=O)OC(C)(C)C)C(=O)NC(C)(C)C)C(=O)c2ccccc2C1=O` (stereo partly specified), the GI50 is 0.986 µM with U251 CNS; 1.83 µM with COLO 205 colon; 0.525 µM in the test with CCRF-CEM leukemia; 1.77 µM with SW-620 colon; 1.49 µM with NCI-H23 lung; 1.27 µM in the test on SK-OV-3 ovarian. Also, the GI50 in the test on SK-MEL-5 melanoma was 1.59 µM. Besides, the TGI in the test with U251 CNS was 2.56 µM; with COLO 205 colon, 3.3 µM; in the test on CCRF-CEM leukemia, over 100 µM; in the test with SW-620 colon it was 3.33 µM; in the test with NCI-H23 lung, 3.2 µM; in the test on SK-OV-3 ovarian, 2.55 µM. In the test with SK-MEL-5 melanoma, the TGI was 2.97 µM.
With `CC1(C)CC2C=C(C=O)C3(C=O)CC3(C)C2C1` (stereo unspecified), the TGI with U251 CNS worked out at 6.45 µM; in the test with COLO 205 colon it was 4.25 µM; in the test on CCRF-CEM leukemia it was 1.15 µM; with SW-620 colon, 2.4 µM; in the test on NCI-H23 lung, 3.99 µM; in the test with SK-OV-3 ovarian, 16.2 µM. In the test with SK-MEL-5 melanoma, this compound had a TGI of 3.51 µM.
With `COc1cc(C2CC(c3cc(C)ccc3C)=NN2c2ccc(S(=O)(=O)NC(=O)NCc3ccccc3)cc2)cc(OC)c1OC` (stereo unspecified), the GI50 is 3.31 µM in the test on U251 CNS; 3.15 µM in the test with CCRF-CEM leukemia; 3.62 µM in the test with SW-620 colon; 3.37 µM with NCI-H23 lung; 4.98 µM in the test with SK-OV-3 ovarian; 4 µM in the test with K-562 leukemia. Moreover, in the test on SK-MEL-5 melanoma, the GI50 was 2.04 µM. Besides, the TGI is 17.3 µM in the test with U251 CNS; 18.6 µM with CCRF-CEM leukemia; over 100 µM in the test with SW-620 colon; 19.5 µM in the test with NCI-H23 lung; 18.4 µM in the test with SK-OV-3 ovarian; 34.1 µM with K-562 leukemia. In the test with SK-MEL-5 melanoma, this compound yielded a TGI of 4.36 µM.
Regarding `COc1ccc(/C=C/c2cc(N3CCOCC3)c3cc(F)c(F)cc3n2)cc1OC`, the GI50 was 0.728 µM in the test on U251 CNS; 0.558 µM in the test with COLO 205 colon; 0.31 µM in the test on CCRF-CEM leukemia; 0.667 µM in the test with SW-620 colon; 1.12 µM in the test on NCI-H23 lung; 1.32 µM in the test with SK-OV-3 ovarian. Also, the GI50 with SK-MEL-5 melanoma was 0.52 µM. Besides, the TGI worked out at 10.5 µM in the test with U251 CNS; 3.81 µM with COLO 205 colon; 10.2 µM in the test with CCRF-CEM leukemia; 11.6 µM in the test with SW-620 colon; 6.11 µM in the test with NCI-H23 lung; 9.17 µM in the test on SK-OV-3 ovarian. In the test on SK-MEL-5 melanoma, this compound showed a TGI of 2.37 µM.
With `CCc1c(Cl)nc(Cl)nc1Cl`, the TGI with U251 CNS was 0.92 µM; with COLO 205 colon it was 0.284 µM; in the test on SW-620 colon it was 1.39 µM; in the test on NCI-H23 lung, 2.06 µM; in the test on SK-OV-3 ovarian, 12.3 µM; with K-562 leukemia it was over 32 µM. For the same compound, the TGI in the test with SK-MEL-5 melanoma was found to be 1.39 µM.
On to `NCC1OC(OC2C(CO)OC(OC3C(O)C(N)CC(N)C3OC3OC(CO)C(O)C(O)C3N)C2O)C(N)C(O)C1O` (stereo unspecified), for which the GI50 with U251 CNS, in the test on COLO 205 colon, with SW-620 colon, in the test on NCI-H23 lung, in the test on SK-OV-3 ovarian and in the test with K-562 leukemia was over 50 µg/mL in each case. Besides, the TGI in the test with U251 CNS, in the test with COLO 205 colon, with SW-620 colon, in the test on NCI-H23 lung, in the test with SK-OV-3 ovarian and in the test with K-562 leukemia was over 50 µg/mL in each case.
Regarding `CC1(C)C(=S)C(C)(C)C1=S`, the TGI in the test with U251 CNS, in the test with COLO 205 colon, in the test with SW-620 colon, in the test on NCI-H23 lung, in the test with SK-OV-3 ovarian and with K-562 leukemia was over 100 µM each time. The compound further registered a TGI in the test with SK-MEL-5 melanoma of over 100 µM.

The values above are taken from PubChem BioAssay (NCI).
